Results on 25 substances are retold here after the OligoGym collection.

This data set has as its target APP. Kind of data set: mouse, dose not given. Particulars: ASO.

HELM strings list units from the 5' end as sugar, base in round brackets, then linkage (d deoxyribose, r ribose, m 2'-O-methyl, p phosphodiester). Strings are as the collection lists them; they lack the last nucleoside at the 3' end of the tested compound. [moe] = 2'-O-(2-methoxyethyl) (MOE); [sp] = phosphorothioate linkage; [m5C] = 5-methylcytosine

As for “RNA1{[moe](A)[sp].[moe](A)p.[moe](A)p.[moe]([m5C])p.[moe](T)[sp].d([m5C])[sp].d(T)[sp].d(A)[sp].d([m5C])[sp].d([m5C])[sp].d([m5C])[sp].d([m5C])[sp].d(T)[sp].d([m5C])[sp].d(G)[sp].[moe](G)p.[moe](A)p.[moe](A)[sp].[moe]([m5C])}$$$$ (last 3' nucleoside missing)”, the 3 h FOB score was 1 score 0-7.
Turning to “RNA1{[moe](A)[sp].[moe](A)p.[moe](G)p.[moe](G)p.[moe](G)[sp].d([m5C])[sp].d(A)[sp].d(T)[sp].d([m5C])[sp].d(A)[sp].d([m5C])[sp].d(T)[sp].d(T)[sp].d(A)[sp].d([m5C])[sp].[moe](A)p.[moe](A)p.[moe](A)[sp].[moe]([m5C])}$$$$ (last 3' nucleoside missing)”, the 3 h FOB score came out at 0 score 0-7.
“RNA1{[moe](A)[sp].[moe](A)p.[moe](G)p.[moe](G)p.[moe]([m5C])[sp].d(A)[sp].d(T)[sp].d(G)[sp].d([m5C])[sp].d(A)[sp].d(T)[sp].d(T)[sp].d(T)[sp].d(T)[sp].d(T)[sp].[moe](A)p.[moe](G)p.[moe](G)[sp].[moe](G)}$$$$ (last 3' nucleoside missing)”: the 3 h FOB score was determined as 1.67 score 0-7.
The substance “RNA1{[moe](A)[sp].[moe](A)p.[moe](G)p.[moe]([m5C])p.[moe](T)[sp].d(T)[sp].d(A)[sp].d([m5C])[sp].d(A)[sp].d(T)[sp].d([m5C])[sp].d(A)[sp].d(T)[sp].d(T)[sp].d(T)[sp].[moe](T)p.[moe]([m5C])p.[moe](T)[sp].[moe](T)}$$$$ (last 3' nucleoside missing)” yielded a 3 h FOB score of 1.33 score 0-7.
Consider “RNA1{[moe](A)[sp].[moe](A)p.[moe]([m5C])p.[moe](T)p.[moe]([m5C])[sp].d(G)[sp].d(A)[sp].d(A)[sp].d([m5C])[sp].d([m5C])[sp].d(A)[sp].d([m5C])[sp].d([m5C])[sp].d(T)[sp].d([m5C])[sp].[moe](T)p.[moe](T)p.[moe]([m5C])[sp].[moe]([m5C])}$$$$ (last 3' nucleoside missing)”, for which the 3 h FOB score was determined as 0 score 0-7.
“RNA1{[moe](A)[sp].[moe](G)p.[moe](A)p.[moe](T)p.[moe](A)[sp].d([m5C])[sp].d(T)[sp].d(T)[sp].d(G)[sp].d(T)[sp].d([m5C])[sp].d(A)[sp].d(A)[sp].d([m5C])[sp].d(G)[sp].[moe](G)p.[moe]([m5C])p.[moe](A)[sp].[moe](T)}$$$$ (last 3' nucleoside missing)” had a 3 h FOB score of 2.33 score 0-7.
The value for “RNA1{[moe](A)[sp].[moe](G)p.[moe](G)p.[moe](A)p.[moe](A)[sp].d([m5C])[sp].d(T)[sp].d([m5C])[sp].d(G)[sp].d(A)[sp].d(A)[sp].d([m5C])[sp].d([m5C])[sp].d(A)[sp].d([m5C])[sp].[moe]([m5C])p.[moe](T)p.[moe]([m5C])[sp].[moe](T)}$$$$ (last 3' nucleoside missing)” was 1 score 0-7.
The value for “RNA1{[moe](A)[sp].[moe](G)p.[moe](G)p.[moe](A)p.[moe]([m5C])[sp].d(A)[sp].d(T)[sp].d(T)[sp].d([m5C])[sp].d(A)[sp].d(T)[sp].d(T)[sp].d(T)[sp].d(T)[sp].d(T)[sp].[moe](G)p.[moe](A)p.[moe]([m5C])[sp].[moe]([m5C])}$$$$ (last 3' nucleoside missing)” was 1 score 0-7; that for “RNA1{[moe](A)[sp].[moe](G)p.[moe](G)p.[moe](T)p.[moe]([m5C])[sp].d(T)[sp].d([m5C])[sp].d(T)[sp].d(A)[sp].d(T)[sp].d(A)[sp].d(T)[sp].d(T)[sp].d(T)[sp].d(T)[sp].[moe](G)p.[moe](G)p.[moe](T)[sp].[moe]([m5C])}$$$$ (last 3' nucleoside missing)” was 0.33 score 0-7.
“RNA1{[moe](A)[sp].[moe](G)p.[moe](T)p.[moe](A)p.[moe]([m5C])[sp].d(A)[sp].d(T)[sp].d(A)[sp].d(T)[sp].d(T)[sp].d([m5C])[sp].d(A)[sp].d(T)[sp].d(T)[sp].d([m5C])[sp].[moe](A)p.[moe](A)p.[moe](T)[sp].[moe]([m5C])}$$$$ (last 3' nucleoside missing)” gave a 3 h FOB score of 0 score 0-7.
The substance “RNA1{[moe](A)[sp].[moe](G)p.[moe]([m5C])p.[moe](A)p.[moe](T)[sp].d([m5C])[sp].d(T)[sp].d(T)[sp].d(T)[sp].d(T)[sp].d(A)[sp].d([m5C])[sp].d(T)[sp].d(A)[sp].d(T)[sp].[moe]([m5C])p.[moe](T)p.[moe](G)[sp].[moe]([m5C])}$$$$ (last 3' nucleoside missing)” had a 3 h FOB score of 0.67 score 0-7.
In the case of “RNA1{[moe](A)[sp].[moe](G)p.[moe]([m5C])p.[moe](T)p.[moe](T)[sp].d(A)[sp].d([m5C])[sp].d(A)[sp].d(T)[sp].d([m5C])[sp].d(A)[sp].d(T)[sp].d(T)[sp].d(T)[sp].d(T)[sp].[moe]([m5C])p.[moe](T)p.[moe](T)[sp].[moe](G)}$$$$ (last 3' nucleoside missing)” it was 1 score 0-7; in that of “RNA1{[moe](A)[sp].[moe](T)p.[moe](A)p.[moe](T)p.[moe](T)p.[moe](T)p.d(G)[sp].d(T)[sp].d([m5C])[sp].d(A)[sp].d(A)[sp].d([m5C])[sp].d([m5C])[sp].d([m5C])[sp].d(A)[sp].d(G)[sp].[moe](A)p.[moe](A)[sp].[moe]([m5C])}$$$$ (last 3' nucleoside missing)”, 1 score 0-7; in that of “RNA1{[moe](A)[sp].[moe](T)p.[moe](G)p.[moe](G)p.[moe](A)[sp].d(T)[sp].d([m5C])[sp].d(T)[sp].d(G)[sp].d(A)[sp].d(A)[sp].d(T)[sp].d([m5C])[sp].d([m5C])[sp].d([m5C])[sp].[moe](A)p.[moe]([m5C])p.[moe](T)[sp].[moe](T)}$$$$ (last 3' nucleoside missing)”, 1 score 0-7.
As to “RNA1{[moe](A)[sp].[moe](T)p.[moe](G)p.[moe](T)p.[moe](G)[sp].d(A)[sp].d(T)[sp].d(T)[sp].d(T)[sp].d([m5C])[sp].d(A)[sp].d([m5C])[sp].d(T)[sp].d(A)[sp].d(A)[sp].[moe]([m5C])p.[moe]([m5C])p.[moe](G)[sp].[moe](G)}$$$$ (last 3' nucleoside missing)”, the 3 h FOB score turned out to be 0 score 0-7.
The value for “RNA1{[moe](A)[sp].[moe](T)p.[moe](G)p.[moe](T)p.[moe](G)p.[moe](A)[sp].d(T)[sp].d(T)[sp].d(T)[sp].d([m5C])[sp].d(A)[sp].d([m5C])[sp].d(T)[sp].d(A)[sp].d(A)[sp].d([m5C])[sp].[moe]([m5C])p.[moe](G)[sp].[moe](G)}$$$$ (last 3' nucleoside missing)” was 0 score 0-7; that for “RNA1{[moe](A)[sp].[moe](T)p.[moe](G)p.[moe](T)p.[moe](T)[sp].d([m5C])[sp].d(A)[sp].d(T)[sp].d(T)[sp].d([m5C])[sp].d(T)[sp].d([m5C])[sp].d(A)[sp].d(T)[sp].d([m5C])[sp].[moe]([m5C])p.[moe]([m5C])p.[moe]([m5C])[sp].[moe](A)}$$$$ (last 3' nucleoside missing)” was 1 score 0-7; that for “RNA1{[moe](A)[sp].[moe](T)p.[moe](G)p.[moe]([m5C])p.[moe](A)[sp].d(T)[sp].d([m5C])[sp].d(A)[sp].d(A)[sp].d(T)[sp].d(T)[sp].d([m5C])[sp].d([m5C])[sp].d(T)[sp].d(T)[sp].[moe](T)p.[moe](G)p.[moe](G)[sp].[moe](G)}$$$$ (last 3' nucleoside missing)” was 0 score 0-7.
“RNA1{[moe](A)[sp].[moe](T)p.[moe](T)p.[moe]([m5C])p.[moe](T)[sp].d(G)[sp].d(G)[sp].d(A)[sp].d([m5C])[sp].d(A)[sp].d(T)[sp].d(T)[sp].d([m5C])[sp].d(A)[sp].d(T)[sp].[moe](G)p.[moe](T)p.[moe](G)[sp].[moe]([m5C])}$$$$ (last 3' nucleoside missing)”: the 3 h FOB score came to 1 score 0-7.
The value for “RNA1{[moe](A)[sp].[moe](T)p.[moe](T)p.[moe]([m5C])p.[moe](T)[sp].d([m5C])[sp].d(T)[sp].d(T)[sp].d(A)[sp].d(T)[sp].d(A)[sp].d(T)[sp].d(T)[sp].d([m5C])[sp].d([m5C])[sp].[moe](T)p.[moe](T)p.[moe](A)[sp].[moe]([m5C])}$$$$ (last 3' nucleoside missing)” was 0.5 score 0-7; that for “RNA1{[moe](A)[sp].[moe](T)p.[moe]([m5C])p.[moe](A)p.[moe]([m5C])[sp].d([m5C])[sp].d(A)[sp].d(G)[sp].d(T)[sp].d(T)[sp].d(T)[sp].d([m5C])[sp].d(A)[sp].d(T)[sp].d(A)[sp].[moe]([m5C])p.[moe](A)p.[moe]([m5C])[sp].[moe](T)}$$$$ (last 3' nucleoside missing)” was 0.25 score 0-7; that for “RNA1{[moe](A)[sp].[moe]([m5C])p.[moe](A)p.[moe](T)p.[moe](T)[sp].d(A)[sp].d(T)[sp].d(T)[sp].d([m5C])[sp].d(T)[sp].d(A)[sp].d(T)[sp].d(A)[sp].d(A)[sp].d(A)[sp].[moe](T)p.[moe](G)p.[moe](G)[sp].[moe](A)}$$$$ (last 3' nucleoside missing)” was 0 score 0-7.
Substance “RNA1{[moe](A)[sp].[moe]([m5C])p.[moe](A)p.[moe](T)p.[moe]([m5C])[sp].d(A)[sp].d(T)[sp].d(A)[sp].d(T)[sp].d(T)[sp].d([m5C])[sp].d(T)[sp].d(T)[sp].d(A)[sp].d([m5C])[sp].[moe](T)p.[moe](G)p.[moe](T)[sp].[moe](T)}$$$$ (last 3' nucleoside missing)” returned a 3 h FOB score of 0 score 0-7.
For “RNA1{[moe](A)[sp].[moe]([m5C])p.[moe](A)p.[moe]([m5C])p.[moe](A)[sp].d([m5C])[sp].d(A)[sp].d(A)[sp].d(A)[sp].d([m5C])[sp].d(T)[sp].d([m5C])[sp].d(T)[sp].d(A)[sp].d([m5C])[sp].[moe]([m5C])p.[moe]([m5C])p.[moe]([m5C])[sp].[moe](T)}$$$$ (last 3' nucleoside missing)”, the 3 h FOB score was found to be 0.5 score 0-7.
“RNA1{[moe](A)[sp].[moe]([m5C])p.[moe](A)p.[moe]([m5C])p.[moe]([m5C])[sp].d(G)[sp].d([m5C])[sp].d([m5C])[sp].d([m5C])[sp].d(A)[sp].d([m5C])[sp].d([m5C])[sp].d(A)[sp].d(T)[sp].d(G)[sp].[moe](A)p.[moe](G)p.[moe](T)[sp].[moe]([m5C])}$$$$ (last 3' nucleoside missing)” registered a 3 h FOB score of 1 score 0-7.
